Laboratory results from US20220218679A1, “NOVEL COMPOUNDS AND PHARMACEUTICAL COMPOSITIONS THEREOF FOR THE TREATMENT OF INFLAMMATORY DISORDERS” (Galapagos NV, priority 2019, published 2022).

Key:
mouse CIA model = test: Mouse collagen induced arthritis (CIA) model; type: in vivo, DBA1/J mice; conditions: 3, 10 and 30 mg/kg b.i.d., versus disease vehicle group
Protocol: Completed Freund's adjuvant (CFA) and incomplete Freund's adjuvant (IFA) were purchased from Difco. Bovine collagen type II (CII), lipopolysaccharide (LPS), and Enbrel was obtained from Chondrex (Isle d'Abeau, France); Sigma (P4252, L'Isle d'Abeau, France), Whyett (25 mg injectable syringe, France) Acros Organics (Palo Alto, Calif.), respectively. All other reagents used were of reagent grade and all solvents were of analytical grade.
DBA1/J mice (male, 7-8 weeks old) were obtained from Charles River Laboratories (France). Mice were kept on a 12 h light/dark cycle (07 h 00-19 h 00). Temperature was maintained at 22° C., and food and water were provided ad libitum.
5.1.3. Collagen Induced Arthritis (CIA)
One day before the experiment, CII solution (2 mg/mL) was prepared with 0.05 M AcOH and stored at 4° C. Just before the immunization, equal volumes of adjuvant […] and CII were mixed by a homogenizer in a pre-cooled glass bottle in an ice water bath. Extra adjuvant and prolonged homogenization may be required if an emulsion was not formed. […]
The therapeutic effects of the compounds were tested in the mouse CIA model. […] Body weight and clinical score, were recorded twice a week. […]
Arthritis is scored according to the method of (Khachigian, 2006; Lin et al., 2007; Nishida et al., 2004). […]
For each readout, mean and sem are calculated. […]

[1] = tested on: MC903 induced atopic dermatitis in mice; test: Murine prophylactic model of atopic dermatitis induced by topical application of MC903; type: in vivo, BALB/cN mice or CD1/Swiss mice; conditions: 10 mg/kg b.i.d., versus disease vehicle group
Description: 5.5. Murine Prophylactic Model of Atopic Dermatitis Induced by Topical Application of MC903
Methylcellulose 0.5% was obtained from VWR (cat no. AX021233). MC903 (calcipotriol) was obtained from Tocris Bioscience (cat no. 2700/50). ProSense® 680 was obtained from PerkinElmer (cat no. NEV10003). RNAlater® was obtained from Ambion (cat no. AM7021). Imalgene® 1000 (Merial) and Rompun® 2% (Bayer) were obtained from Centravet (cat no. IMA004-6827812 and ROM001-6835444).
BALB/cN mice (female, 18-20 g body weight) or CD1/Swiss mice (female, 24-26 g body weight) were obtained from Janvier Labs (France). Mice were kept on a 12 h light/dark cycle (07:00-19:00). Temperature was maintained at 22±2° C., food and water were provided ad libitum. […]
The thickness of both ears was measured (after anaesthesia induced by isoflurane inhalation) at initiation of the study, every other day and at sacrifice using a thickness gage (Mitutoyo, Absolute Digimatic, 547-321).
Body weight was assessed at initiation of the study, every other day and at sacrifice.
On D4, mice from all groups receive ProSense® 680 probe (0.8 nmol/10 g, IP). […] Granulocyte infiltration was measured using in vivo molecular imaging (Bruker In-Vivo Xtreme imaging system, excitation wavelength: 630 nm, emission wavelength: 700 nm, acquisition time: 5 seconds). […]
For each readout, mean and sem were calculated. […]

COc1cn2nc(CCC(C)(C)O)cc2cc1NC(=O)c1cccn(C2CC2)c1=O [Compound 1, 1-cyclopropyl-N-[2-(3-hydroxy-3-methylbutyl)-6-methoxypyrazolo[1,5-a]pyridin-5-yl]-2-oxopyridine-3-carboxamide]
statistically significant effect: effect on bone erosion Larsen Score (mouse CIA model) | effect on clinical score (mouse CIA model) | effect on ear thickening at D8 [1] | effect on granulocyte infiltrate [1]
